pIC50: −log10 of the molar value. Calls of active or inactive are those of the source. The calls are words filed in the database; no cut-off is given here.
Columns and labels:
RAW264.7 [1] = experiment: Anti-inflammatory activity in mouse RAW264.7 cells assessed as inhibition of LPS-induced NO production preincubated with compound for 24 hrs followed by LPS stimulation by Griess reagent based analysis; assay type: functional, cell-based
[2] = Toxicity in C57BL/6 mouse effect on body weight at 100 mg/kg, po measured after 24 hrs; assay type: organism-based; settings: in vivo
[3] = Toxicity in C57BL/6 mouse effect on intestine at 100 mg/kg, po measured after 24 hrs; assay type: organism-based; settings: in vivo
[4] = Toxicity in C57BL/6 mouse effect on liver at 100 mg/kg, po measured after 24 hrs; assay type: organism-based; settings: in vivo
RAW264.7 [5] = experiment: Anti-inflammatory activity in mouse RAW264.7 cells assessed as inhibition of LPS-induced IL-6 level preincubated with compound for 2 hrs followed by LPS stimulation and measured after 22 hrs by ELISA method; assay type: functional, cell-based; settings: dose 2.5-20 µM, time 24.0 hrs
Mus musculus [6] = experiment: Antiinflammatory activity against C57BL/6 mouse acute inflammation model assessed as inhibition of LPS-induced TNF-alpha level at 50 to 100 mg/kg, po pre-administered for 2 hrs followed by LPS stimulation for 6 hrs by ELISA method; assay type: functional, organism-based; settings: dose 50-100 mg/kg, time 8.0 hrs
[7] = biological target: Bromodomain-containing protein 3 (Homo sapiens) (UniProt Q15059); experiment: Inhibition of BRD3 BD2 (unknown origin) at 1 uM incubated for 2 hrs by TR-FRET assay relative to control
[8] = Toxicity in C57BL/6 mouse effect on spleen at 100 mg/kg, po measured after 24 hrs; assay type: organism-based; settings: in vivo
[9] = biological target: T1, Bromodomain-containing protein 4 (Homo sapiens, UniProt O60885); experiment: Inhibition of human recombinant BRD4 BD2 (349 to 460 residues) extracted from Escherichia coli BL21 (DE3) incubated for 2 hrs by TR-FRET assay
Mus musculus [10] = experiment: Antiinflammatory activity against C57BL/6 mouse acute inflammation model assessed as inhibition of LPS-induced IL-6 level at 50 to 100 mg/kg, po pre-administered for 2 hrs followed by LPS stimulation for 6 hrs by ELISA method; assay type: functional, organism-based; settings: dose 50-100 mg/kg, time 8.0 hrs
Mus musculus [11] = experiment: Antiinflammatory activity against LPS-induced C57BL/6 mouse acute inflammation model assessed as rescue of damaged renal tubule cells in kidney at 50 to 100 mg/kg, po pre-administered for 2 hrs followed by LPS stimulation for 6 hrs; assay type: functional, organism-based; settings: dose 50-100 mg/kg, time 8.0 hrs
[12] = biological target: Transcription initiation factor TFIID subunit 1 (Homo sapiens) (UniProt P21675); experiment: Inhibition of TAF1 (unknown origin) at 1 uM incubated for 2 hrs by TR-FRET assay relative to control
Mus musculus [13] = experiment: Antiinflammatory activity against LPS-induced C57BL/6 mouse acute inflammation model assessed as decrease in infiltration of renal interstitial inflammatory cells at 100 mg/kg, po pre-administered for 2 hrs followed by LPS stimulation for 6 hrs; assay type: functional, organism-based; settings: time 8.0 hrs
Mus musculus [14] = experiment: Antiinflammatory activity against LPS-induced C57BL/6 mouse acute inflammation model assessed as improvement of internal brush boundary structure at 100 mg/kg, po pre-administered for 2 hrs followed by LPS stimulation for 6 hrs; assay type: functional, organism-based; settings: time 8.0 hrs
THP-1 [15] = experiment: Anti-inflammatory activity in human THP-1 cells assessed as inhibition of LPS-induced IL-6 expression preincubated with compound for 2 hrs followed by LPS stimulation and measured after 6 hrs by RT-qPCR analysis; assay type: functional, cell-based; settings: dose 2.5-20 µM, time 8.0 hrs
[16] = biological target: T1, Bromodomain-containing protein 4; experiment: Inhibition of human recombinant BRD4 BD2 (349 to 460 residues) extracted from Escherichia coli BL21 (DE3) at 10 uM incubated for 2 hrs by TR-FRET assay relative to control
Mus musculus [17] = experiment: Antiinflammatory activity against C57BL/6 mouse acute inflammation model assessed as reduction in LPS induced lung edema at 50 to 100 mg/kg, po pre-administered for 2 hrs followed by LPS stimulation for 6 hrs; assay type: functional, organism-based; settings: dose 50-100 mg/kg, time 8.0 hrs
[18] = biological target: Bromodomain testis-specific protein (Homo sapiens) (UniProt Q58F21); experiment: Inhibition of BRDT BD1 (unknown origin) at 1 uM incubated for 2 hrs by TR-FRET assay relative to control
RAW264.7 [19] = experiment: Anti-inflammatory activity in mouse RAW264.7 cells assessed as inhibition of LPS-induced TNF-alpha level preincubated with compound for 2 hrs followed by LPS stimulation and measured after 22 hrs by ELISA method; assay type: functional, cell-based; settings: dose 2.5-20 µM, time 24.0 hrs
RAW264.7 [20] = experiment: Anti-inflammatory activity in mouse RAW264.7 cells assessed as inhibition of LPS-induced TNF-alpha expression preincubated with compound for 2 hrs followed by LPS stimulation and measured after 6 hrs by RT-qPCR analysis; assay type: functional, cell-based; settings: dose 2.5-20 µM, time 8.0 hrs
[21] = biological target: CREB-binding protein (Homo sapiens) (UniProt Q92793); experiment: Inhibition of CREBBP (unknown origin) at 1 uM incubated for 2 hrs by TR-FRET assay relative to control
[22] = biological target: T1, Bromodomain-containing protein 4; experiment: Inhibition of human recombinant BRD4 BD1 (42 to 167 residues) extracted from Escherichia coli BL21 (DE3) incubated for 2 hrs by TR-FRET assay
[23] = biological target: T2, Bromodomain-containing protein 9 (Homo sapiens) (UniProt Q9H8M2); experiment: Inhibition of BRD9 (unknown origin) at 1 uM incubated for 2 hrs by TR-FRET assay relative to control
T2 sequence (whole entry): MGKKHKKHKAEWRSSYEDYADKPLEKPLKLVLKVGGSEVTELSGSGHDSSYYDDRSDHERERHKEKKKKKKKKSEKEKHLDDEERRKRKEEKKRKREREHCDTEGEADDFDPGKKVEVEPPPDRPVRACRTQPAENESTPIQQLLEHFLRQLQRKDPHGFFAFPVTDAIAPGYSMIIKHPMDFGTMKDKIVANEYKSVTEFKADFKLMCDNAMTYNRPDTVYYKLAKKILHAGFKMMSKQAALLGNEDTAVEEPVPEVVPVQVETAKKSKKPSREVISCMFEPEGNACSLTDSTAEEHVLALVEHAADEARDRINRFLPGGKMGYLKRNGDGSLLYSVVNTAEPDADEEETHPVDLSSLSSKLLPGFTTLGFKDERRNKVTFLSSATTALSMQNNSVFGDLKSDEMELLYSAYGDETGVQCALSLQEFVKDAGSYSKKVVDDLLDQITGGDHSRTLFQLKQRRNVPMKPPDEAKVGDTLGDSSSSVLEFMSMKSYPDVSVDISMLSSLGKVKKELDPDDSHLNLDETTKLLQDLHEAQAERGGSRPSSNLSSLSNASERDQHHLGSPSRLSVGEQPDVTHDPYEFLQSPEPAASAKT

Mus musculus [24] = experiment: Antiinflammatory activity against LPS-induced C57BL/6 mouse acute inflammation model assessed as rescue of damaged glomerular cells in kidney at 50 to 100 mg/kg, po pre-administered for 2 hrs followed by LPS stimulation for 6 hrs; assay type: functional, organism-based; settings: dose 50-100 mg/kg, time 8.0 hrs
[25] = biological target: Bromodomain-containing protein 2 (Homo sapiens) (UniProt P25440); experiment: Inhibition of BRD2 BD1 (unknown origin) at 1 uM incubated for 2 hrs by TR-FRET assay relative to control
[26] = biological target: Bromodomain-containing protein 2 (Homo sapiens) (UniProt P25440); experiment: Inhibition of BRD2 BD2 (unknown origin) at 1 uM incubated for 2 hrs by TR-FRET assay relative to control
THP-1 [27] = experiment: Cytotoxicity against human THP-1 cells at 20 uM measured after 24 hrs by CCK8 method; assay type: functional, cell-based

Chain of Bromodomain-containing protein 2 (Homo sapiens) (P25440 whole entry, looked up): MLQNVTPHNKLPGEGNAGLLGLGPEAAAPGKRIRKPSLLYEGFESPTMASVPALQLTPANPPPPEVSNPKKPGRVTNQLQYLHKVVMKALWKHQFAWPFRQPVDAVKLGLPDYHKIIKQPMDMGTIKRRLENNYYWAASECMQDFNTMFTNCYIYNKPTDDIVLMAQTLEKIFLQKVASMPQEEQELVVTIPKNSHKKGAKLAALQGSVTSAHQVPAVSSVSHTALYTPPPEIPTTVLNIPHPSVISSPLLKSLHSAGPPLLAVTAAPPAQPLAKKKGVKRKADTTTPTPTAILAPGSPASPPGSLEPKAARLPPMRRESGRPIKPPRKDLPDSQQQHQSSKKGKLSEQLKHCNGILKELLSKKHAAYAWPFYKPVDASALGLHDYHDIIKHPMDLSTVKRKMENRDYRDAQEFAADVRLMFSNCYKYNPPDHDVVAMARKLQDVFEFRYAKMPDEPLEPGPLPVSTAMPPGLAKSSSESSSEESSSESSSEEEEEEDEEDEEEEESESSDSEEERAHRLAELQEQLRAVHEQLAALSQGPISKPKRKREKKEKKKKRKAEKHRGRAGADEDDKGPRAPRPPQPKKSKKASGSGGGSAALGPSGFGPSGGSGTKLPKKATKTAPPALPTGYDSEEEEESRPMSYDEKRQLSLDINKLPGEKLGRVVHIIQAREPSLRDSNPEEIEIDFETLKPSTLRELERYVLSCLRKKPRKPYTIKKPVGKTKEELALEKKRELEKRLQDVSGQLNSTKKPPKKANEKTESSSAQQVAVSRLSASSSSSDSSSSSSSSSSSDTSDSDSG
Chain of Transcription initiation factor TFIID subunit 1 (Homo sapiens) (P21675 whole entry): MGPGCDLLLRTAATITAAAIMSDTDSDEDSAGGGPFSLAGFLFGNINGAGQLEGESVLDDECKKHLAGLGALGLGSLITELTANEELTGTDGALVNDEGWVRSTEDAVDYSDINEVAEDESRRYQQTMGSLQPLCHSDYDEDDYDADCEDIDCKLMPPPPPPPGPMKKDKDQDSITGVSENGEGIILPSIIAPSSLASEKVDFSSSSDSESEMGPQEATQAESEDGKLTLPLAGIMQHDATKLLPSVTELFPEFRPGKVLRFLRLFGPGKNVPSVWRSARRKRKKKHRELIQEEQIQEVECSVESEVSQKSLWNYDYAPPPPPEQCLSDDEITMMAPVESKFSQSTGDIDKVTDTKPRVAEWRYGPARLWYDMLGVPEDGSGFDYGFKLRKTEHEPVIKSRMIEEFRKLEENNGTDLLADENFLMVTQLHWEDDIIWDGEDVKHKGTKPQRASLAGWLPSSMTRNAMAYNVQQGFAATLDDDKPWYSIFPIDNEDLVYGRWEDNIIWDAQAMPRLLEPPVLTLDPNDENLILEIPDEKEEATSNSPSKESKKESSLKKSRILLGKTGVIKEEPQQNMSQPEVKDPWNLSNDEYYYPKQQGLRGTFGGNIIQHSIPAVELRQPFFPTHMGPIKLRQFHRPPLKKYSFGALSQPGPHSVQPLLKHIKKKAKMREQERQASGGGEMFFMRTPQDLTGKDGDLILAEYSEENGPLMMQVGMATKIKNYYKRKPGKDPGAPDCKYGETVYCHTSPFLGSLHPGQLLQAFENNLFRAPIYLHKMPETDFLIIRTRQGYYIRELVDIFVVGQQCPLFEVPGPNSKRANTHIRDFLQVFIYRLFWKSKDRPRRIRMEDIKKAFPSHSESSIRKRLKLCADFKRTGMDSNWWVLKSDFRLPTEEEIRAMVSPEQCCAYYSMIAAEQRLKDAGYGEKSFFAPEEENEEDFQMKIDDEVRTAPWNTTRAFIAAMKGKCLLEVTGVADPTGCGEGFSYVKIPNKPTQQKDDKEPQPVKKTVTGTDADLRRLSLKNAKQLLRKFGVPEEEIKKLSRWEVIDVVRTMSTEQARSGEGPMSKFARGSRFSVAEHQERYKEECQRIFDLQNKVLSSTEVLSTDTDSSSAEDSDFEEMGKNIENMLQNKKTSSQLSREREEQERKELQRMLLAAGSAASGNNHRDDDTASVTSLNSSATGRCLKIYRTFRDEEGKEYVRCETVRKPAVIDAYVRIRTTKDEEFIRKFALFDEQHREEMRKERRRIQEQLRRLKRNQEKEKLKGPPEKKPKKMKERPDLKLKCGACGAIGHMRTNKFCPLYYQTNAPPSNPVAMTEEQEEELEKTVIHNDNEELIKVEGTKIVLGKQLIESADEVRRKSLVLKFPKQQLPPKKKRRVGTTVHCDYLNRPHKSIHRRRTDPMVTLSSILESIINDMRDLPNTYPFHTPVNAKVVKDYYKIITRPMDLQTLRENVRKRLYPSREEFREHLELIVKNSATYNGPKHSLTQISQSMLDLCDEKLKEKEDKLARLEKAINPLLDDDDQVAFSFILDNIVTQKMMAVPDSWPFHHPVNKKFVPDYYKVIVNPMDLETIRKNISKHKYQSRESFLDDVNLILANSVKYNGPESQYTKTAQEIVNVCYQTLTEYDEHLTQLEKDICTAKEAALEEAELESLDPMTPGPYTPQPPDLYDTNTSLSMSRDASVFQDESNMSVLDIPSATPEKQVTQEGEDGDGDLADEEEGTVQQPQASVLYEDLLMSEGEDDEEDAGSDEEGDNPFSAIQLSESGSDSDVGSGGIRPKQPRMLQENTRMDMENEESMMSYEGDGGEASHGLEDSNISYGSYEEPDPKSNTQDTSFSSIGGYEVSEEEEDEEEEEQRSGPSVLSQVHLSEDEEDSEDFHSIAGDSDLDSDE
Chain of Bromodomain-containing protein 3 (Homo sapiens) (Q15059 2-726 limits assumed): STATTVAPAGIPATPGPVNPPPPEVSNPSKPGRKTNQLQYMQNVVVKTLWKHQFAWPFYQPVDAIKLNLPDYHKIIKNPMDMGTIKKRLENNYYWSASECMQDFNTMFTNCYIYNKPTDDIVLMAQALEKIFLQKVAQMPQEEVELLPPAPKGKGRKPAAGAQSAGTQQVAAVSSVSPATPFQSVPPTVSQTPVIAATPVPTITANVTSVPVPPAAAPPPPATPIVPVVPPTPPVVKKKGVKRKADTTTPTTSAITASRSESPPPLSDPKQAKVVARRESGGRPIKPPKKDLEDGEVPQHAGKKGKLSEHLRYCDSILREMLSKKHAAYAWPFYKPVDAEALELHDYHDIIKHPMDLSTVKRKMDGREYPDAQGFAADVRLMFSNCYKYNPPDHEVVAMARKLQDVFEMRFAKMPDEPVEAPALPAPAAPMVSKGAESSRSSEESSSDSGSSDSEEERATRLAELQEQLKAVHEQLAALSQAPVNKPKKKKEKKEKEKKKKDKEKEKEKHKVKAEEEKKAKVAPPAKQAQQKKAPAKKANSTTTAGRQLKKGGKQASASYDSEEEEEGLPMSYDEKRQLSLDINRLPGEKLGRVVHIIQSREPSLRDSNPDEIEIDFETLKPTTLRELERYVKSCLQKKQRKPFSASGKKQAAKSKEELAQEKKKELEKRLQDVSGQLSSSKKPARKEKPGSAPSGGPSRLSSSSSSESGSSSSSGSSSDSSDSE

pIC50 (RAW264.7 [1]): 5.70
inhibition [7]: 44%
pIC50 [9]: 6.92
inhibition [12]: 5%
inhibition [16]: 89%
inhibition [18]: 6%
inhibition [21]: 15%
pIC50 [22]: 5.42
inhibition [23]: 12%
inhibition [25]: 24%
inhibition [26]: 30%
Compound: COc1ccc(/C=C/c2nc3cc(OC)cc(OC)c3c(=O)[nH]2)cc1
Activity [2]: Non-toxic
Activity [3]: Non-toxic
Activity [4]: Non-toxic
Activity (RAW264.7 [5]): Dose-dependent-effect
Activity (Mus musculus [6]): Active
Activity [8]: Non-toxic
Activity (Mus musculus [10]): Active
Activity (Mus musculus [11]): Active
Activity (Mus musculus [13]): Active
Activity (Mus musculus [14]): Active
Activity (THP-1 [15]): Dose-dependent-effect
Activity (Mus musculus [17]): Active
Activity (RAW264.7 [19]): Dose-dependent-effect
Activity (RAW264.7 [20]): Dose-dependent-effect
Activity (Mus musculus [24]): Active
Activity (THP-1 [27]): inactive

From ChEMBL document CHEMBL6121006, “Marine natural product-inspired discovery of novel BRD4 inhibitors with anti-inflammatory activity” (Eur J Med Chem, 2025)
